Where two headings read alike, the source gives them in different places.

One test relates to HIV-1 (strain LAV). The test is described as follows: microbe, parasite or virus in culture. Format: cell-based. The source says: It is often desirable to screen a number of racemic mixtures of nucleosides as a preliminary step to determine which warrant further resolution into enantiomerically enriched components and evaluation of antiviral activity. The ability of nucleosides to inhibit HIV can be measured by various experimental techniques. The technique used herein, and described in detail below, measures the inhibition of viral replication in phytohemagglutinin (PHA) stimulated human peripheral blood mononuclear (PBM) cells infected with HIV-1 (strain LAV). The amount of virus produced is determined by measuring the virus-coded reverse transcriptase enzyme. The amount of enzyme produced is proportional to the amount of virus produced.
A. Three-day-old phytohemagglutinin-stimulated PBM cells (10^6 cells/ml) from hepatitis B and HIV-1 seronegative healthy donors were infected with HIV-1 (strain LAV) at a concentration of about 100 times the 50% tissue culture infectious dose (TICD 50) per ml and cultured in the presence and absence of various concentrations of antiviral compounds.
B. Approximately one hour after infection, the medium, with the compound to be tested (2 times the final concentration in medium) or without compound, was added to the flasks (5 ml; final volume 10 ml). AZT was used as a positive control.
C. The cells were exposed to the virus (about 2×10^5 dpm/ml, as determined by reverse transcriptase assay) and then placed in a CO2 incubator. HIV-1 (strain LAV) was obtained from the Center for Disease Control, Atlanta, Ga. The methods used for culturing the PBM cells, harvesting the virus and determining the reverse transcriptase activity were those described by McDougal et al. (J. Immun. Meth. 76, 171-183, 1985) and Spira et al. (J. Clin. Meth. 25, 97-99, 1987), except that fungizone was not included in the medium (see Schinazi, et al., Antimicrob. Agents Chemother. 32, 1784-1787 (1988); Id., 34:1061-1067 (1990)).
D. On day 6, the cells and supernatant were transferred to a 15 ml tube and centrifuged at about 900 g for 10 minutes. Five ml of supernatant were removed and the virus was concentrated by centrifugation at 40,000 rpm for 30 minutes (Beckman 70.1 Ti rotor). The solubilized virus pellet was processed for determination of the levels of reverse transcriptase. Results are expressed in dpm/ml of sampled supernatant. Virus from smaller volumes of supernatant (1 ml) can also be concentrated by centrifugation prior to solubilization and determination of reverse transcriptase levels.

For test [1], the target named is reverse transcriptase activity. The conditions noted are these: read-out: EC50, concentration required to reduce the reverse transcriptase activity by 50%; cited from earlier work.
Where [2] appears, read: Human immunodeficiency virus 1, PBMC, comparison nucleosides, source not stated, read-out: EC50.
[3] abbreviates: human PBM cells infected with HIV-1, enantiomers isolated by chiral HPLC (Example 3), read-out: EC50.

For `Nc1nc(=O)n(C2CSC(CO)O2)cc1F` (single isomer, unassigned; (+)) [DLS-059 (+), (+)-2-hydroxymethyl-5-(5-fluorocytosin-1-yl)-1,3-oxathiolane], the DPM/ml with HIV-1 (strain LAV) (0.001 μM, listed as FTC (+)) is recorded as 94,340 DPM/ml; in the test with HIV-1 (strain LAV) (0.005 μM, listed as FTC (+)), 107,430 DPM/ml; in the test on HIV-1 (strain LAV) (0.01 μM, listed as FTC (+)), 99,465 DPM/ml; in the test with HIV-1 (strain LAV) (0.05 μM, listed as FTC (+)) it was 87,120 DPM/ml; in the test with HIV-1 (strain LAV) (0.1 μM, listed as FTC (+)) it was 86,340 DPM/ml; in the test on HIV-1 (strain LAV) (0.5 μM, listed as FTC (+)), 33,225 DPM/ml. The “% Inhibition (Corrected)” value in the test on HIV-1 (strain LAV) (0.001 μM, listed as FTC (+), 0.001 µM) is on record as 3.8%; with HIV-1 (strain LAV) (0.005 μM, listed as FTC (+), 0.005 µM), −10.6%; with HIV-1 (strain LAV) (0.01 μM, listed as FTC (+), 0.01 µM) it was −1.8%; in the test with HIV-1 (strain LAV) (0.05 μM, listed as FTC (+), 0.05 µM), 11.8%; with HIV-1 (strain LAV) (0.1 μM, listed as FTC (+), 0.1 µM), 12.7%; in the test with HIV-1 (strain LAV) (0.5 μM, listed as FTC (+), 0.5 µM), 71.4%. Also, the EC50 in the test with HIV-1 (strain LAV) (summary range, listed as (+)-enantiomer of FTC, read-out: EC50 against HIV) is 0.28 to 0.84 µM.

As for `Nc1nc2c(ncn2[C@H]2C=C[C@@H](CO)O2)c(=O)[nH]1` [(+)-enantiomer of carbovir, 2′,3′-didehydro-2′,3′-dideoxyguanosine], the EC50 in test [1] was more than 60 µM.

As to `Nc1nc2c(ncn2[C@H]2C=C[C@@H](CO)O2)c(=O)[nH]1` [(−)-enantiomer of carbovir, 2′,3′-didehydro-2′,3′-dideoxyguanosine], the EC50 in test [1] was 0.8 µM.

As for `[N-]=[N+]=N[C@H]1C[C@H](n2ccc(=O)[nH]c2=O)O[C@@H]1CO` [AZDU, 3′-azido-2′,3′-dideoxyuridine, reference compound], in the test on HIV-1 (strain LAV) (setting [2]), the EC50 is 0.18 to 0.46 µM.

As to `Nc1ccn(C2CSC(CO)O2)c(=O)n1` (stereo not drawn) [BCH-189 (+), 2-hydroxymethyl-5-(cytosin-1-yl)-1,3-oxathiolane], the DPM/ml in the test with HIV-1 (strain LAV) (0.00085 μM) is 71,795 DPM/ml; in the test with HIV-1 (strain LAV) (0.00425 μM) it was 99,710 DPM/ml; in the test with HIV-1 (strain LAV) (0.0085 μM) it was 68,355 DPM/ml; in the test with HIV-1 (strain LAV) (0.0415 μM) it was 82,845 DPM/ml; in the test on HIV-1 (strain LAV) (0.0825 μM), 65,100 DPM/ml; in the test with HIV-1 (strain LAV) (0.412 μM), 43,260 DPM/ml. Also, the inhibition (usually the change of the read-out against control, counted positive when it falls) at 0.00085 µM in the test on HIV-1 (strain LAV) (Human immunodeficiency virus 1, PBMC, 0.00085 μM, read-out: % Inhibition (Corrected)) was 28.7%. Further, in the test with HIV-1 (strain LAV) (Human immunodeficiency virus 1, PBMC, 0.00425 μM, read-out: % Inhibition (Corrected)), the inhibition at 0.00425 µM is -2.1%. Also, the inhibition at 0.0085 µM in the test on HIV-1 (strain LAV) (Human immunodeficiency virus 1, PBMC, 0.0085 μM, read-out: % Inhibition (Corrected)) came out at 32.5%. Besides, in the test on HIV-1 (strain LAV) (Human immunodeficiency virus 1, PBMC, 0.0415 μM, read-out: % Inhibition (Corrected)), the inhibition at 0.0415 µM was 16.5%. Further, the inhibition at 0.0825 µM in the test with HIV-1 (strain LAV) (Human immunodeficiency virus 1, PBMC, 0.0825 μM, read-out: % Inhibition (Corrected)) was determined as 36.1%. Moreover, the inhibition at 0.412 µM in the test with HIV-1 (strain LAV) (Human immunodeficiency virus 1, PBMC, 0.412 μM, read-out: % Inhibition (Corrected)) stood at 60.3%. Further, in the test with HIV-1 (strain LAV) (setting [3]), the EC50 is 0.23 µM.

Take `Nc1ccn(C2CSC(CO)O2)c(=O)n1` (stereo not drawn) [BCH-189 (−), 2-hydroxymethyl-5-(cytosin-1-yl)-1,3-oxathiolane]: the DPM/ml in the test on HIV-1 (strain LAV) (0.001 μM) was 76,400 DPM/ml; with HIV-1 (strain LAV) (0.005 μM) it was 66,875 DPM/ml; in the test on HIV-1 (strain LAV) (0.01 μM), 54,170 DPM/ml; in the test on HIV-1 (strain LAV) (0.05 μM) it was 57,615 DPM/ml; in the test on HIV-1 (strain LAV) (0.1 μM), 34,705 DPM/ml; in the test on HIV-1 (strain LAV) (0.5 μM) it was 15,250 DPM/ml. Besides, the inhibition at 0.001 µM with HIV-1 (strain LAV) (Human immunodeficiency virus 1, PBMC, 0.001 μM, read-out: % Inhibition (Corrected)) is 23.6%. In addition, the inhibition at 0.005 µM in the test on HIV-1 (strain LAV) (Human immunodeficiency virus 1, PBMC, 0.005 μM, read-out: % Inhibition (Corrected)) was determined as 34.2%. The inhibition at 0.01 µM in the test with HIV-1 (strain LAV) (Human immunodeficiency virus 1, PBMC, 0.01 μM, read-out: % Inhibition (Corrected)) was found to be 48.2%. The inhibition at 0.05 µM in the test with HIV-1 (strain LAV) (Human immunodeficiency virus 1, PBMC, 0.05 μM, read-out: % Inhibition (Corrected)) was 44.4%. In the test on HIV-1 (strain LAV) (Human immunodeficiency virus 1, PBMC, 0.1 μM, read-out: % Inhibition (Corrected)), the inhibition at 0.1 µM stood at 69.7%. Moreover, in the test with HIV-1 (strain LAV) (Human immunodeficiency virus 1, PBMC, 0.5 μM, read-out: % Inhibition (Corrected)), the inhibition at 0.5 µM stood at 91.2%. The EC50 in the test with HIV-1 (strain LAV) (setting [3]) is 0.016 µM.

Turning to `Nc1ncnc2c1ncn2[C@H]1CC[C@@H](CO)O1` [DDA, 2′,3′-dideoxyadenosine, reference compound], the EC50 in the test with HIV-1 (strain LAV) (setting [2]) is 0.91 µM.

As to `Nc1ccn([C@H]2CC[C@@H](CO)O2)c(=O)n1` [DDC, dideoxycytidine, reference compound], in the test on HIV-1 (strain LAV) (setting [2]), the EC50 turned out to be 0.011 µM.

For the compound `Cc1cn([C@H]2CC[C@@H](CO)O2)c(=O)[nH]c1=O` [DDT, 3′-dideoxythymidine, reference compound], the EC50 in the test on HIV-1 (strain LAV) (comparison nucleosides, source not stated, read-out: EC50) was 0.17 µM.

The values are drawn from US20090239887A1, “Method of resolution and antiviral activity of 1,3-oxathiolane nucleoside enantiomers” (Emory University, priority 1990, published 2009).
